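Five compound concentrations were applied to cells in 96-well plates for 48 hours; endpoints were derived by simple linear interpolation of the resulting dose-response curve. GI50 marks 50% less growth.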 Activity calls are given as the source filed them. Cut-off read from the data, not from the text of the source: active = GI50 up to about 1.1 µM and inactive = higher.
Legend:
Assay in all cases: DTP human tumour cell line panel, 48 h
HL-60 = test system: HL-60
RXF 631 = test system: RXF 631
SK-MEL-28 = test system: SK-MEL-28
IGROV-1 = test system: IGROV-1
HCC 2998 = test system: HCC 2998
CAKI-1 = test system: CAKI-1
SK-OV-3 = test system: SK-OV-3
HT-29 = test system: HT-29
ACHN = test system: ACHN
DLD-1 = test system: DLD-1
UACC-257 = test system: UACC-257
NCI-H226 = test system: NCI-H226
LOX IMVI = test system: LOX IMVI
NCI-H522 = test system: NCI-H522
SW-620 = test system: SW-620
SF-295 = test system: SF-295
UACC-62 = test system: UACC-62
SR = test system: SR
HCT-15 = test system: HCT-15
A498 = test system: A498
SK-MEL-5 = test system: SK-MEL-5
SN12C = test system: SN12C
OVCAR-3 = test system: OVCAR-3
786-0 = test system: 786-0
DMS-273 = test system: DMS-273
SF-268 = test system: SF-268
SNB-19 = test system: SNB-19
A549 = test system: A549
MOLT-4 = test system: MOLT-4
SF-539 = test system: SF-539
HOP-18 = test system: HOP-18
LXFL 529 = test system: LXFL 529
KM-20L2 = test system: KM-20L2
M14 = test system: M14
HCT-116 = test system: HCT-116
SK-MEL-2 = test system: SK-MEL-2
U-251 = test system: U-251
HOP-62 = test system: HOP-62
K562 = test system: K562
Malme-3M = test system: Malme-3M
NCI-H460 = test system: NCI-H460
OVCAR-4 = test system: OVCAR-4
OVCAR-8 = test system: OVCAR-8
EKVX = test system: EKVX
SNB-75 = test system: SNB-75
DMS-114 = test system: DMS-114
SNB-78 = test system: SNB-78
CCRF-CEM = test system: CCRF-CEM
UO-31 = test system: UO-31
TK-10 = test system: TK-10
OVCAR-5 = test system: OVCAR-5
RXF 393 = test system: RXF 393
HOP-92 = test system: HOP-92
COLO 205 = test system: COLO 205
NCI-H23 = test system: NCI-H23
M19-MEL = test system: M19-MEL
KM12 = test system: KM12
RPMI-8226 = test system: RPMI-8226

In the case of `COC(=O)C(C(=O)C(=O)Nc1ccc([N+](=O)[O-])cc1)c1nc2ccc([N+](=O)[O-])cc2nc1O` (centres undefined), the GI50 (HL-60) is reported as 41.9 µM (inactive), the GI50 (RXF 631) is reported as > 100 µM (inactive) and the GI50 (SK-MEL-28) is reported as > 100 µM (inactive). For the same compound, the GI50 (IGROV-1) was > 100 µM (inactive), the GI50 (HCC 2998) was > 100 µM (inactive) and the GI50 (CAKI-1) was > 100 µM (inactive). The GI50 (SK-OV-3) was > 100 µM (inactive), the GI50 (HT-29) was > 100 µM (inactive) and the GI50 (ACHN) was > 100 µM (inactive). The GI50 (DLD-1) was > 100 µM (inactive), the GI50 (UACC-257) was > 100 µM (inactive) and the GI50 (NCI-H226) was > 100 µM (inactive). The GI50 (LOX IMVI) was > 100 µM (inactive), the GI50 (NCI-H522) was 14.1 µM (inactive) and the GI50 (SW-620) was > 100 µM (inactive). For the same compound, the GI50 (SF-295) was > 100 µM (inactive), the GI50 (UACC-62) was 63.1 µM (inactive) and the GI50 (SR) was > 100 µM (inactive). The GI50 (HCT-15) was greater than 100 µM, the GI50 (A498) was > 100 µM (inactive) and the GI50 (SK-MEL-5) was 65.6 µM (inactive). For the same compound, the GI50 (SN12C) was > 100 µM (inactive), the GI50 (OVCAR-3) was > 100 µM (inactive) and the GI50 (786-0) was > 100 µM (inactive). The GI50 (DMS-273) was > 100 µM (inactive), the GI50 (SF-268) was > 100 µM (inactive) and the GI50 (SNB-19) was > 100 µM (inactive). For the same compound, the GI50 (A549) was > 100 µM (inactive), the GI50 (MOLT-4) was > 100 µM (inactive) and the GI50 (SF-539) was > 100 µM (inactive). For the same compound, the GI50 (HOP-18) was > 100 µM (inactive), the GI50 (LXFL 529) was 43.5 µM (inactive) and the GI50 (KM-20L2) was > 100 µM (inactive). The GI50 (M14) was 76.6 µM (inactive), the GI50 (HCT-116) was > 100 µM (inactive) and the GI50 (SK-MEL-2) was > 100 µM (inactive). The GI50 (U-251) was > 100 µM (inactive), the GI50 (HOP-62) was > 100 µM (inactive) and the GI50 (K562) was 39.2 µM (inactive). For the same compound, the GI50 (Malme-3M) was > 100 µM (inactive), the GI50 (NCI-H460) was > 100 µM (inactive) and the GI50 (OVCAR-4) was > 100 µM (inactive). The GI50 (OVCAR-8) was > 100 µM (inactive), the GI50 (EKVX) was > 100 µM (inactive) and the GI50 (SNB-75) was > 100 µM (inactive). The GI50 (DMS-114) was 68.2 µM (inactive), the GI50 (SNB-78) was > 100 µM (inactive) and the GI50 (CCRF-CEM) was 55.2 µM (inactive). For the same compound, the GI50 (UO-31) was > 100 µM (inactive), the GI50 (TK-10) was > 100 µM (inactive) and the GI50 (OVCAR-5) was > 100 µM (inactive). For the same compound, the GI50 (RXF 393) was > 100 µM (inactive), the GI50 (HOP-92) was > 100 µM (inactive) and the GI50 (COLO 205) was > 100 µM (inactive). For the same compound, the GI50 (NCI-H23) was > 100 µM (inactive), the GI50 (M19-MEL) was > 100 µM (inactive) and the GI50 (KM12) was > 100 µM (inactive).
`NC(=O)CCC(Nc1c2ccccc2nc2ccccc12)C(=O)O` (centres undefined) was tested, and the GI50 (HL-60) was 15.3 µM (inactive), the GI50 (RXF 631) was 77.3 µM (inactive) and the GI50 (SK-MEL-28) was > 100 µM (inactive). For the same compound, the GI50 (HCC 2998) was > 100 µM (inactive), the GI50 (CAKI-1) was > 100 µM (inactive) and the GI50 (HT-29) was 93.1 µM (inactive). For the same compound, the GI50 (ACHN) was 91 µM (inactive), the GI50 (DLD-1) was 88.3 µM (inactive) and the GI50 (UACC-257) was 65.8 µM (inactive). For the same compound, the GI50 (NCI-H226) was > 100 µM (inactive), the GI50 (LOX IMVI) was 63.7 µM (inactive) and the GI50 (NCI-H522) was > 100 µM (inactive). The GI50 (SW-620) was > 100 µM (inactive), the GI50 (SF-295) was > 100 µM (inactive) and the GI50 (SR) was 55.2 µM (inactive). For the same compound, the GI50 (HCT-15) was greater than 100 µM, the GI50 (SN12C) was > 100 µM (inactive) and the GI50 (OVCAR-3) was 56.8 µM (inactive). For the same compound, the GI50 (786-0) was > 100 µM (inactive), the GI50 (DMS-273) was > 100 µM (inactive) and the GI50 (SF-268) was > 100 µM (inactive). For the same compound, the GI50 (A549) was > 100 µM (inactive), the GI50 (MOLT-4) was 58.1 µM (inactive) and the GI50 (SF-539) was > 100 µM (inactive). For the same compound, the GI50 (LXFL 529) was > 100 µM (inactive), the GI50 (KM-20L2) was > 100 µM (inactive) and the GI50 (M14) was > 100 µM (inactive). For the same compound, the GI50 (HCT-116) was 91 µM (inactive), the GI50 (SK-MEL-2) was > 100 µM (inactive) and the GI50 (U-251) was > 100 µM (inactive). For the same compound, the GI50 (K562) was 45.7 µM (inactive), the GI50 (Malme-3M) was > 100 µM (inactive) and the GI50 (NCI-H460) was 86.9 µM (inactive). For the same compound, the GI50 (OVCAR-4) was 4.14 µM (inactive), the GI50 (OVCAR-8) was > 100 µM (inactive) and the GI50 (EKVX) was 71.3 µM (inactive). The GI50 (SNB-75) was > 100 µM (inactive), the GI50 (CCRF-CEM) was > 100 µM (inactive) and the GI50 (RPMI-8226) was 17.2 µM (inactive). For the same compound, the GI50 (TK-10) was > 100 µM (inactive), the GI50 (OVCAR-5) was > 100 µM (inactive) and the GI50 (RXF 393) was > 100 µM (inactive). The GI50 (HOP-92) was 41.1 µM (inactive), the GI50 (COLO 205) was > 100 µM (inactive) and the GI50 (NCI-H23) was > 100 µM (inactive). For the same compound, the GI50 (M19-MEL) was > 100 µM (inactive) and the GI50 (KM12) was > 100 µM (inactive).

— ChEMBL document CHEMBL1201862, “PubChem BioAssay data set” (2004)
